Literature values, collected in patent US11771690B2, “Solid particle, preparation method therefor, and pharmaceutical composition containing solid particle” (SHANGHAI WD PHARMACEUTICAL CO., LTD, priority 2018, dated 2023).

Compound: C[C@]12C=CC(=O)N[C@@H]1CC[C@@H]1[C@@H]2CC[C@]2(C)[C@@H](C(=O)Nc3cc(C(F)(F)F)ccc3C(F)(F)F)CC[C@@H]12 [Dutasteride, (5α,17β)-N-{2,5-bis(trifluoromethyl)phenyl}-3-oxo-4-azaandrost-1-ene-17-carboxamide]
- solubility in water: insoluble
